Test results published in article PMC6100724, “Proteome‐wide analysis of phospho‐regulated PDZ domain interactions” (Molecular Systems Biology, 2018).
Square brackets hold non-standard residues; d marks the D form. Peptide text beside a SMILES is read from it. * marks the point of attachment. FITC = O=C1OC2(c3ccc(O)cc3Oc3cc(O)ccc32)c2ccc(NC(=S)*)cc21; pS = N[C@@H](COP(=O)(O)O)C(=O)O

Columns and labels:
DLG1 PDZ2 [1] = target: T1, DLG1 PDZ2 (Homo sapiens, UniProt Q12959); assay: MST affinity measurement, FITC-labeled peptides vs DLG1 PDZ2; type: binding; conditions: FITC-labeled peptide fixed at 25–50 nM, titrated with DLG1 PDZ2 (aa 311–407), 50 mM Tris–HCl pH 7.4, 0.1% Tween‐20, thermophoresis and T Jump signal, mean ± SD, n = 3, read-out: KD values, DLG1 PDZ2 (table row head: DLG PDZ1), MST
T1 construct: human DLG1 PDZ2 aa 311–407 in a modified pRSET vector 40; made in house; host or cells: E. coli BL21 Gold (DE3)
Text: (§1) Glutathione transferase (GST)‐tagged PDZ domains and GST for phage display selections were expressed and purified as described previously (Tonikian et al, 2008; Ivarsson et al, 2014). Protein expression for MST, ITC, and NMR experiments was as follows: Plasmids encoding His‐tagged proteins (human Scribble PDZ1 aa 719–829 in pETM‐11, human DLG1 PDZ2 aa 311–407 in a modified pRSET vector 40, or human Shank1 PDZ aa 652–761 in pETM‐33) were transformed into E. coli BL21 Gold (DE3; Agilent), and the proteins were expressed in 2YT media supplemented with appropriate antibiotic (70 or 100 μg/ml carbenicillin). Protein expression was induced upon reaching an OD600 of 0.8 by adding 1 mM isopropyl β‐D‐1‐thiogalactopyranoside (IPTG) final concentration and allowed for 4 h at 30°C.
(§2) Scribble PDZ1 for NMR experiments was expressed in M9 salt enriched with 13C D‐glucose and 15N ammonium chloride. Bacteria were harvested by centrifugation at 10,000 × g for 20 min at 4°C. The pellets were resuspended in PBS supplemented with 5 mM CaCl2, 10 μg/ml DNaseI, and 1 mg/ml lysozyme and protease inhibitor (cOmplete Mini EDTA‐free; Sigma‐Aldrich) and incubated for 1 h at 4°C. The lysates were subjected to sonication in 1‐ to 3‐s pulses for 20 pulses. The lysate was cleared by centrifugation at 20,000 × g for 1 h. […]

Scribble PDZ1 [2] = target: T2, Scribble PDZ1 (Homo sapiens, UniProt Q14160); assay: ITC titration, wild-type Scribble PDZ1; type: binding; conditions: unlabeled 9-mer peptides, 20 mM HEPES pH 7.4, 25°C, 50–100 μM protein in cell, 0.64–3 mM peptide in syringe, single-site fit, mean ± SD
T2 construct: human Scribble PDZ1 aa 719–829 in; made in house; host or cells: E. coli BL21 Gold (DE3)
Text: as §1
as §2, with “pulses.” for “pulses. The lysate was cleared by centrifugation at 20,000 × g for 1 h.”
Peptides and proteins were dialyzed in the same beaker in 20 mM HEPES, pH 7.4. […] The results were analyzed using Origin 7 (OriginLab Corporation). […]

Scribble PDZ2 = assay: Phosphomimetic ProP-PD selection with NGS; type: binding, human; conditions: bait Scribble PDZ2; mean of selections 1 and 2 (selection 3 empty)
Outline: (§3)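 Phosphomimetic peptide phage library panned 4 rounds; GST pre-selection; bind 2 h/8°C; wash PBS-Tween. Score = read fraction per set.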

DLG1 PDZ1 = assay: Phosphomimetic ProP-PD selection with NGS; type: binding, human; conditions: mean of selections 1-3, bait DLG1 PDZ1; for Mean fraction #NGS counts mimetic peptide / total count selection: phosphomimetic peptide; for Mean fraction #NGS counts wt peptide / total counts selection: wild type peptide
Outline: as §3

Scribble PDZ3 = assay: Phosphomimetic ProP-PD selection with NGS; type: binding, human; conditions: mean over selections 1-3; bait Scribble PDZ3
Outline: as §3

DLG1 PDZ3 = assay: Phosphomimetic ProP-PD selection with NGS; type: binding, human; conditions: mean of selections 1-3; bait DLG1 PDZ3
Outline: as §3

DLG1 PDZ2 [3] = target: T1, DLG1 PDZ2; assay: Phosphomimetic ProP-PD selection with NGS; type: binding; conditions: mean of selections 1-3, bait DLG1 PDZ2
Outline: as §3

Scribble PDZ1 [4] = target: T2, Scribble PDZ1; assay: Phosphomimetic ProP-PD selection with NGS; type: binding; conditions: bait Scribble PDZ1; mean of selections 1-3
Outline: as §3

T1 sequence (Q12959 311-407): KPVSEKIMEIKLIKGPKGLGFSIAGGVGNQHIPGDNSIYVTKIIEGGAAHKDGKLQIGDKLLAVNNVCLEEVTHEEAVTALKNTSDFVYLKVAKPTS
T2 sequence (Q14160 719-829): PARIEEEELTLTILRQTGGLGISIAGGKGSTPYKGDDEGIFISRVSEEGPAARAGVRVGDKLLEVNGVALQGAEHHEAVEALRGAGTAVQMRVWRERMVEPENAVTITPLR

Mean fraction #NGS counts mimetic peptide / total count selection (DLG1 PDZ2 [3]) | Mean fraction #NGS counts mimetic peptide / total count selection (Scribble PDZ1 [4]) | Mean fraction #NGS counts wt peptide / total counts selection (Scribble PDZ1 [4]) | Compound | Mean fraction #NGS counts mimetic peptide / total count selection (DLG1 PDZ1) | Mean fraction #NGS counts mimetic peptide / total count selection (Scribble PDZ3) | Mean fraction #NGS counts mimetic peptide / total count selection (DLG1 PDZ3) | Mean fraction #NGS counts wt peptide / total counts selection (DLG1 PDZ1) | Mean fraction #NGS counts wt peptide / total counts selection (Scribble PDZ3) | Mean fraction #NGS counts wt peptide / total counts selection (DLG1 PDZ3) | other results
 |  |  | CC[C@H](C)[C@H](NC(=O)[C@H](Cc1ccccc1)NC(=O)[C@H](CO)NC(=O)[C@H](CCCNC(=N)N)NC(=O)[C@H](CCCCN)NC(=S)Nc1ccc2c(c1)C(=O)OC21c2ccc(O)cc2Oc2cc(O)ccc21)C(=O)N[C@@H](CCC(=O)O)C(=O)N[C@@H](CO)C(=O)N[C@@H](CC(N)=O)C(=O)N[C@H](C(=O)O)C(C)C [TANC1] ({FITC}-KRSFIESNV-OH) |  |  |  |  |  |  | Kd (DLG1 PDZ2 [1]): 2.7 ± 0.1 µM
 |  |  | CC[C@H](C)[C@H](NC(=O)[C@H](Cc1ccccc1)NC(=O)[C@H](COP(=O)(O)O)NC(=O)[C@H](CCCNC(=N)N)NC(=O)[C@H](CCCCN)NC(=S)Nc1ccc2c(c1)C(=O)OC21c2ccc(O)cc2Oc2cc(O)ccc21)C(=O)N[C@@H](CCC(=O)O)C(=O)N[C@@H](CO)C(=O)N[C@@H](CC(N)=O)C(=O)N[C@H](C(=O)O)C(C)C [pTANC1, FITC‐KRpSFIESNV] ({FITC}-KR[pS]FIESNV-OH) |  |  |  |  |  |  | Kd (DLG1 PDZ2 [1]): 6.1 ± 0.7 µM
 |  |  | ARVSKEpTPL [pMAPK12, p‐2 phosphorylated MAPK12 peptide] |  |  |  |  |  |  | KD values, Scribble PDZ1, ITC (Scribble PDZ1 [2]; n = 3): no binding; KD values, Scribble PDZ1, ITC (Scribble PDZ1 [2]; n = 3, listed as phosphorylated MAPK12): no interaction was observed
0.01768 | 6.299e-5 |  | HSIKQETAV | 0.0009534 | 0.0001468 | 0.0006363 |  |  |  | Mean fraction #NGS counts mimetic peptide / total count selection (Scribble PDZ2): 0.001519
0 |  | 4.38e-5 | HSIKQSTAV |  |  |  | 0.0004538 | 5.205e-5 | 0 | Mean fraction #NGS counts wt peptide / total counts selection (Scribble PDZ2): 0.0003798; Mean fraction #NGS counts wt peptide / total counts selection (DLG1 PDZ2 [3]; wild type peptide): 5.408e-5
0 | 0 |  | LPKIKEETV | 3.0718e-6 | 0 | 0 |  |  |  | 
 |  | 0.0005451 | LPKIKETTV |  |  |  | 0.004479 | 0.004275 | 0.008422 | Mean fraction #NGS counts wt peptide / total counts selection (DLG1 PDZ2 [3]): 0.04339
3.584e-5 | 0 |  | VWLRKEERV | 0 | 0 | 9.275e-5 |  |  |  | Mean fraction #NGS counts mimetic peptide / total count selection (Scribble PDZ2): 0
 |  | 0.0001002 | VWLRKETRV |  |  |  | 0.4163 | 0.009414 | 0.8949 | Mean fraction #NGS counts wt peptide / total counts selection (Scribble PDZ2): 0.008925; Mean fraction #NGS counts wt peptide / total counts selection (DLG1 PDZ2 [3]): 0.5055
